Test results reported in patent US4549022A, “4-Pyridone-3-carboxylic acid derivatives” (Hoffmann-La Roche Inc., priority 1978, dated 1985).
≈ marks a conversion by molar mass, not a printed value. Like-named read-outs stand apart in the source and are kept apart here.

How the values were obtained:
LD50 (acute toxicity) = type: in vivo
central nervous system = experiment: Turning rat test (minimum active dosage); type: in vivo
Escherichia coli [1] = experiment: Escherichia coli in vitro MIC (Minimum Inhibitory Concentration); type: cell-based
Escherichia coli [2] = experiment: Escherichia coli in vivo (mouse) ED50
[3] = vs d-amphetamine and d-methamphetamine, see Table 1

Row | Compound | MIC (Escherichia coli [1]; read-out: MIC) [µg/mL] | ED50 (Escherichia coli [2]; po, read-out: ED50) [mg/kg] | further results
1 | CCn1cc(C(=O)O)c(=O)cc1-c1ccccc1 [1-ethyl-4-oxo-6-phenyl-1,4-dihydronicotinic acid] |  |  | LD50 (LD50 (acute toxicity); in vivo, po): 300 to 600 mg/kg; LD50 compared with d-amphetamine and d-methamphetamine (LD50 (acute toxicity); [3]): substantially lower LD50; LD50 compared with nomifensin (LD50 (acute toxicity); vs nomifensin, see Table 1): about the same LD50; Turning rat test minimum active dosage (central nervous system; Arch. int. Pharmacodyn. Ther. 217, 118-130 (1975)): 1; activity compared with d-amphetamine and d-methamphetamine (central nervous system; [3]): about the same strong activity; activity compared with nomifensin (central nervous system; vs nomifensin, see Table 1): substantially superior activity to nomifensin
2 | CCn1cc(C(=O)O)c(=O)cc1-c1ccc2c(c1)OCO2 [1-ethyl-6-(3,4-methylenedioxyphenyl)-4-oxo-1,4-dihydronicotinic acid] | 2.5 (≈ 8.7 µM) | > 100 | 
3 | CCn1cc(C(=O)O)c(=O)cc1-c1ccc(NC)c(C)c1 [1-ethyl-6-(3-methyl-4-methylaminophenyl)-4-oxo-1,4-dihydronicotinic acid] | 0.6 (≈ 2.1 µM) | 3.5 | 
4 | CCn1cc(C(=O)O)c(=O)cc1-c1ccc(OC)cc1 [1-ethyl-6-(4-methoxyphenyl)-4-oxo-1,4-dihydronicotinic acid] | 2.5 (≈ 9.15 µM) | > 100 | 
5 | CCn1cc(C(=O)O)c(=O)cc1-c1ccc(SC)cc1 [1-ethyl-6-(4-methylthiophenyl)-4-oxo-1,4-dihydronicotinic acid] | 2.5 (≈ 8.64 µM) | 82 | 
6 | CCn1cc(C(=O)O)c(=O)cc1-c1ccc(N2CCCC2)cc1 [1-ethyl-6-(4-pyrrolidinophenyl)-4-oxo-1,4-dihydronicotinic acid] | 1.2 (≈ 3.84 µM) | 19 | 
7 | CCn1cc(C(=O)O)c(=O)cc1-c1ccc(-n2cccc2)cc1 [1-ethyl-6-(4-pyrrolophenyl)-4-oxo-1,4-dihydronicotinic acid] |  |  | MIC (Escherichia coli [1]): 1.2 µg/mL (≈ 3.89 µM); ED50 (Escherichia coli [2]; p.o.): 34 mg/kg
8 | CCn1cc(C(=O)O)c(=O)cc1-c1ccc(N(C)C)cc1 [1-ethyl-6-[4-(dimethylamino)-phenyl]-4-oxo-1,4-dihydronicotinic acid] | 0.6 (≈ 2.1 µM) | 8.8 | 
9 | O=C1CN(/N=C/c2ccc([N+](=O)[O-])o2)C(=O)N1 [Nitrofurantoin, reference compound] | 5 (≈ 21 µM) | > 100 | 
